Columns and labels:
[1] = Placental transport in pregnant rats: maternal and fetal serum levels after subcutaneous administration; assay type: in vivo; conditions: rat, 50 mg/kg subcutaneous
Description: In the assay using rats, 19 female rats on day 20 of their gestation period were administered 50 mg./kg. body weight metkephamid (acetate salt) subcutaneously. Sixty minutes after administration, the rats were decapitated, and their blood was collected in glass tubes. The fetuses were removed from the uterus, and the blood was collected either after decapitation or via heart puncture using glass capillary tubes.
(§1) In assaying for metkephamid, 1 ml. serum samples containing 6.72 mg. NaF and 8.0 mg. ethylenediamine tetraacetic acid (EDTA) were prepared and precipitated by addition of 2 ml. acetone. The resulting supernatants were saturated with NaCl and extracted with ethyl acetate. The extracts were dried and derivatized with Fluram® solution. The resulting solution was subjected to reverse phase high performance liquid chromatography and fluorescence detection.
For comparison, meperidine was administered to rats in the manner described for metkephamid. Meperidine content was assayed by adding 6.72 mg. NaF and 8.0 mg. EDTA to 1 ml. samples of serum. The samples were made alkaline with 0.1 ml. of 1.0 M NaOH and extracted with diethyl ether. The extracts were dried and dissolved in 0.3 ml. of ethyl acetate. An aliquot was injected into a gas chromatograph containing a 5 ft. glass column packed with 3% OV-1 on 100/120 mesh Gas Chrom Q. The oven temperature was 165° C., and the flame ionization detector temperature was 250° C.

[2] = Placental transport in pregnant ewes: maternal and fetal serum levels after intramuscular administration; assay type: in vivo; conditions: sheep
Description: In the assay using pregnant ewes, fetal jugular veins and carotid arteries were catheterized and externalized. Maternal femoral arteries were also catheterized. Upon stabilization of the animals, metkephamid (acetate salt) was given intramuscularly, and maternal (10 ml.) and fetal (7 ml.) arterial blood were taken at 0, 10, 20, and 45 minutes. In this assay, 5 ewes at various stages of pregnancy ranging from day 115 to day 145 of a 145-147 day gestation period were used.
as §1

For `CC(=O)O.CSCC[C@@H](C(N)=O)N(C)C(=O)[C@H](Cc1ccccc1)NC(=O)CNC(=O)[C@@H](C)NC(=O)[C@@H](N)Cc1ccc(O)cc1` [Metkephamid, L-tyrosyl-D-alanyl-glycyl-L-phenylalanyl-N^α -methyl-L-methionylamide acetate], which Fetal serum level ([1]; 60 min) is on record?
The Fetal serum level was 0.12 ± 0.04 µg/mL.

What about the Maternal serum level ([1]; 60 min) of the same molecule?
The Maternal serum level was 7.17 ± 0.28 µg/mL.

And the level at 10 min ([2]; female, maternal serum, im, 5 mg/kg intramuscular, 10 min)?
The level at 10 min was 9460 ± 3010 ng/mL.

What about the level at 20 min ([2]; female, maternal serum, im, 5 mg/kg intramuscular, 20 min) of the same molecule?
The level at 20 min was 9430 ± 2600 ng/mL.

And the level at 0.75 h ([2]; female, maternal serum, im, 5 mg/kg intramuscular, 45 min)?
The level at 0.75 h was 8540 ± 2600 ng/mL.

And the fetal levels ([2]; 5 mg./kg., all measured times, limit of sensitivity about 50 ng./ml.)?
Its fetal levels is “undetectable”.

And the Fetal serum level ([2]; 5 mg/kg intramuscular, 0 min)?
Its Fetal serum level is 0.0 µg/mL.

What about the Maternal serum level ([2]; 5 mg/kg intramuscular, 0 min) of the same molecule?
Its Maternal serum level is 0.0 µg/mL.

And the Fetal serum level ([2]; 5 mg/kg intramuscular, 10 min)?
Its Fetal serum level is 0.0 µg/mL.

What about the Fetal serum level ([2]; 5 mg/kg intramuscular, 20 min) of the same molecule?
Its Fetal serum level is 0.0 µg/mL.

What about the Fetal serum level ([2]; 5 mg/kg intramuscular, 45 min) of the same molecule?
The Fetal serum level was 0.0 µg/mL.

For `CCOC(=O)C1(c2ccccc2)CCN(C)CC1` [Meperidine, meperidine, reference compound], which Fetal serum level ([1]; 45 min) is on record?
The Fetal serum level was 2.02 ± 0.23 µg/mL.

And the Maternal serum level ([1]; 45 min)?
Its Maternal serum level is 3.73 ± 0.89 µg/mL.

From US4430327A, “Method for treating pregnant females for pain and anxiety” (Eli Lilly and Company, priority 1982, dated 1984)
